Test results taken from ChEMBL document CHEMBL1201862, “PubChem BioAssay data set” (2004).
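Cultured in 96-well plates, cells were exposed to test compound for 48 hours across five concentrations. GI50 is the concentration that inhibits growth by half.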 Activity calls are given as the source filed them. Cut-off read from the data, not from the text of the source: active = GI50 up to about 1.1 µM and inactive = higher.

Assays:
Assay in all cases: inhibition of tumour cell growth, NCI panel, 48 h
M14 = system: M14
RPMI-8226 = system: RPMI-8226
UACC-62 = system: UACC-62
LXFL 529 = system: LXFL 529
SNB-19 = system: SNB-19
HOP-62 = system: HOP-62
TK-10 = system: TK-10
KM-20L2 = system: KM-20L2
CAKI-1 = system: CAKI-1
NCI-H23 = system: NCI-H23
HT-29 = system: HT-29
UO-31 = system: UO-31
A498 = system: A498
SF-295 = system: SF-295
HCT-15 = system: HCT-15
EKVX = system: EKVX
COLO 205 = system: COLO 205

SMILES | GI50 (M14) | GI50 (RPMI-8226) | GI50 (UACC-62) | GI50 (LXFL 529) | GI50 (SNB-19) | GI50 (HOP-62) | GI50 (TK-10) | GI50 (KM-20L2) | GI50 (CAKI-1) | GI50 (NCI-H23) | GI50 (HT-29) | GI50 (UO-31) | GI50 (A498) | GI50 (SF-295) | GI50 (HCT-15) [µM] | GI50 (EKVX) | GI50 (COLO 205)
CNC(=S)OCCC(C)CCCC(C)C (stereo not given) | 18.6 µM (inactive) | 10.8 µM (inactive) | 15.5 µM (inactive) | 15.8 µM (inactive) | 16.9 µM (inactive) | 19.6 µM (inactive) | 12.8 µM (inactive) | 16.3 µM (inactive) | 17.1 µM (inactive) | 18.8 µM (inactive) | 17.3 µM (inactive) | 7.16 µM (inactive) | 16.3 µM (inactive) | 21.5 µM (inactive) | 14.7 | 17.1 µM (inactive) | –
Cc1cc(NCCCCCCCNc2cc(C)nc3cc(N)ccc23)c2ccc(N)cc2n1 | 43 µM (inactive) | 14.8 µM (inactive) | 35.5 µM (inactive) | 26.5 µM (inactive) | 47.2 µM (inactive) | 41.9 µM (inactive) | > 100 µM (inactive) | 34.2 µM (inactive) | > 100 µM (inactive) | 30.8 µM (inactive) | 34 µM (inactive) | > 100 µM (inactive) | 43.2 µM (inactive) | 10.3 µM (inactive) | > 100 | 55.6 µM (inactive) | 14 µM (inactive)
O=c1nc2occc2cn1C1CC(O)C(CO)O1 (stereo not given) | > 100 µM (inactive) | > 100 µM (inactive) | > 100 µM (inactive) | > 100 µM (inactive) | > 100 µM (inactive) | > 100 µM (inactive) | > 100 µM (inactive) | > 100 µM (inactive) | > 100 µM (inactive) | > 100 µM (inactive) | > 100 µM (inactive) | > 100 µM (inactive) | > 100 µM (inactive) | > 100 µM (inactive) | > 100 | > 100 µM (inactive) | > 100 µM (inactive)
CCCCN[C@H]1C2C3CC4C5CC(C42)C1(C)C53 (stereo not given in full) | > 100 µM (inactive) | > 100 µM (inactive) | > 100 µM (inactive) | > 100 µM (inactive) | > 100 µM (inactive) | > 100 µM (inactive) | > 100 µM (inactive) | > 100 µM (inactive) | > 100 µM (inactive) | – | > 100 µM (inactive) | > 100 µM (inactive) | > 100 µM (inactive) | > 100 µM (inactive) | > 100 | > 100 µM (inactive) | > 100 µM (inactive)
COc1ccc(C2=C(Cl)c3cc(OC)c(OC)cc3C2OC)cc1OC (stereo not given) | > 100 µM (inactive) | 23.8 µM (inactive) | > 100 µM (inactive) | 52.7 µM (inactive) | > 100 µM (inactive) | > 100 µM (inactive) | > 100 µM (inactive) | > 100 µM (inactive) | > 100 µM (inactive) | > 100 µM (inactive) | > 100 µM (inactive) | > 100 µM (inactive) | > 100 µM (inactive) | > 100 µM (inactive) | 56.9 | > 100 µM (inactive) | 26.9 µM (inactive)
Cc1[nH]c2cc([N+](=O)[O-])ccc2c1[N+](=O)[O-] | 19.5 µM (inactive) | 10.5 µM (inactive) | – | 17.2 µM (inactive) | 18.7 µM (inactive) | 7.28 µM (inactive) | 29.7 µM (inactive) | 27.4 µM (inactive) | 19 µM (inactive) | 17.7 µM (inactive) | 27.9 µM (inactive) | 7.96 µM (inactive) | 17.3 µM (inactive) | 17.3 µM (inactive) | – | 11.7 µM (inactive) | 13.7 µM (inactive)
N#CC(C(=O)CCC(=O)Nc1cccc(Cl)c1)c1ccccc1 (stereo not given) | > 100 µM (inactive) | > 100 µM (inactive) | > 100 µM (inactive) | > 100 µM (inactive) | 4.05 µM (inactive) | > 100 µM (inactive) | > 100 µM (inactive) | > 100 µM (inactive) | – | > 100 µM (inactive) | > 100 µM (inactive) | > 100 µM (inactive) | > 100 µM (inactive) | > 100 µM (inactive) | > 100 | > 100 µM (inactive) | > 100 µM (inactive)
CC(=O)OC1(C#N)CC2OC1C1C2N1C(=O)c1ccccc1 (stereo not given) | > 100 µM (inactive) | > 100 µM (inactive) | > 100 µM (inactive) | > 100 µM (inactive) | > 100 µM (inactive) | > 100 µM (inactive) | > 100 µM (inactive) | > 100 µM (inactive) | > 100 µM (inactive) | > 100 µM (inactive) | – | > 100 µM (inactive) | > 100 µM (inactive) | – | > 100 | > 100 µM (inactive) | > 100 µM (inactive)
Cc1ccc(C)c(NC(=O)C(=O)C2C(=O)N(c3ccccc3)N=C2N)c1 (stereo not given) | > 100 µM (inactive) | > 100 µM (inactive) | > 100 µM (inactive) | > 100 µM (inactive) | > 100 µM (inactive) | > 100 µM (inactive) | > 100 µM (inactive) | > 100 µM (inactive) | > 100 µM (inactive) | > 100 µM (inactive) | > 100 µM (inactive) | > 100 µM (inactive) | > 100 µM (inactive) | > 100 µM (inactive) | > 100 | > 100 µM (inactive) | –
